Eight compounds from patent US20090062251A1, “Novel Compounds 002” (ASTRAZENECA AB, priority 2007, published 2009) can be followed below.

Assay [1] deals with T1, Human CB1 receptor (hCB1) (Homo sapiens, UniProt P21554).
T1 construct: purchased Receptor Biology
As to the kind of experiment: hCB1 receptor binding (3H-CP55,940 displacement). To be noted: hCB1 membranes, Ki=IC50/(1+[rad]/Kd). Put shortly: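 Human CB1 membranes in Tris buffer pH 7.4 with 2.5 mM EDTA, 5 mM MgCl2 and 0.5 mg/mL fatty-acid-free BSA, incubated 60 min at room temperature with [3H]CP55,940.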

Assay [2] concerns the target T1, Human CB1 receptor (hCB1). As to the kind of experiment: hCB1 GTPγS binding. The format is biochemical. The conditions noted are these: for EC50: hCB1 membranes, GTPγ35S, 10-point dose-response; for Emax: maximal stimulated binding determined with 10 μM Win 55,212-2. In short, it runs like this:
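Human CB1 membranes in 50 mM Hepes, 100 mM NaCl, 1 mM EDTA, 5 mM MgCl2, 0.1% BSA, pH 7.4 were preincubated 5 min with GDP (30 μM final). Basal and maximal binding were defined without or with 10 μM Win 55,212-2; incubation 60 min RT; filter-bound radioactivity counted. Antagonist reversal used fixed antagonist with agonist curve, or fixed agonist with antagonist curve.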
Background: GTPγS is a poorly hydrolysed GTP analogue; its binding reports G protein activation.

A word on the Ki: it is the dissociation constant of the complex between target and ligand, obtained from inhibition or displacement. As usually defined, the EC50 is the midpoint of the concentration-response curve. As a reminder, the Emax is the size of the effect at its maximum, as opposed to the concentration needed.

T1 sequence (P21554 whole entry): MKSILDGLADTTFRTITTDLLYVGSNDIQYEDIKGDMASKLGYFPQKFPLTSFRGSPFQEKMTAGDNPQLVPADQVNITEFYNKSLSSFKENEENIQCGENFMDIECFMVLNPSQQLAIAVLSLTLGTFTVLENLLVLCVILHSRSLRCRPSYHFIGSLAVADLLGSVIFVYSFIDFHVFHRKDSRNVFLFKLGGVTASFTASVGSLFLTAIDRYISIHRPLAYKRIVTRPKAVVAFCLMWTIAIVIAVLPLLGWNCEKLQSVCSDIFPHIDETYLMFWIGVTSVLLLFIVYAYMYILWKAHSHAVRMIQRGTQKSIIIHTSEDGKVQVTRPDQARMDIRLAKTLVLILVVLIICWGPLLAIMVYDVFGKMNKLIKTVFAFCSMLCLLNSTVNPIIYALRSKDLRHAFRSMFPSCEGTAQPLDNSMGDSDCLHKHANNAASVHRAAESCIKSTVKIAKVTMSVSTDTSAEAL

For `CCN(CC(=O)NCCOC)C(=O)c1ccc2c(c1)c1c(n2C)CCC(C2CCOCC2)C1` (stereo not drawn) [N-ethyl-N-(2-methoxyethylcarbamoylmethyl)-9-methyl-6-(oxan-4-yl)-5,6,7,8-tetrahydrocarbazole-3-carboxamide], affinity in assay [1] was put at a Ki of 219 nM. In assay [2], this compound showed an EC50 of 457 nM and an Emax of 113%.

Consider `CCN(CCCCO)C(=O)c1ccc2c(c1)c1c(n2C)CCC(C2CCOCC2)C1` (stereo not drawn) [N-ethyl-N-(4-hydroxybutyl)-9-methyl-6-(oxan-4-yl)-5,6,7,8-tetrahydrocarbazole-3-carboxamide], for which affinity in assay [1] was put at a Ki of 72.3 nM. In assay [2], a half-maximal effect (EC50) was put at 275 nM and the Emax stood at 122%.

`CCNC(=O)CN(CC)C(=O)c1ccc2c(c1)c1c(n2CCF)CCC(C2CCOCC2)C1` (stereo not drawn) [N-ethyl-N-(ethylcarbamoylmethyl)-9-(2-fluoroethyl)-6-(oxan-4-yl)-5,6,7,8-tetrahydrocarbazole-3-carboxamide]: affinity in assay [1] was put at a Ki of 202 nM. Moreover, in assay [2], the response was half-maximal at 438 nM (EC50) and the Emax was determined as 109%.

On to `CCNC(=O)CN(CC)C(=O)c1ccc2c(c1)c1c(n2C)CCC(C2CCOCC2)C1` (stereo not drawn) [N-ethyl-N-(ethylcarbamoylmethyl)-9-methyl-6-(oxan-4-yl)-5,6,7,8-tetrahydrocarbazole-3-carboxamide], for which affinity in assay [1] was put at a Ki of 17.4 nM. Further, in assay [2], the EC50 amounted to 33.1 nM and the Emax came out at 121%.

`CCNC(=O)CN(CC)C(=O)c1ccc2c(c1)c1c(n2C(=O)N(C)C)CCC(C2CCOCC2)C1` (stereo not drawn) [N-ethyl-N-(ethylcarbamoylmethyl)-N′,N′-dimethyl-6-(oxan-4-yl)-5,6,7,8-tetrahydrocarbazole-3,9-dicarboxamide]: the Ki in assay [1] is above 3480 nM. Also, in assay [2], the EC50 is above 30000 nM and the Emax was above 42%.

The compound `CCN(CCCC(=O)NCCF)C(=O)c1ccc2c(c1)c1c(n2C)CCC(C2CCOCC2)C1` (stereo not drawn) [N-ethyl-N-[3-(2-fluoroethylcarbamoyl)propyl]-9-methyl-6-(oxan-4-yl)-5,6,7,8-tetrahydrocarbazole-3-carboxamide] displayed a Ki in assay [1] of 10.1 nM. In assay [2], the EC50 turned out to be 9.2 nM and the Emax worked out at 135%.

In turn, `CCN(CC(=O)NC[C@@H](C)O)C(=O)c1ccc2c(c1)c1c(n2C)CCC(C2CCOCC2)C1` (stereo partly drawn) [N-ethyl-N-[[(2R)-2-hydroxypropyl]carbamoylmethyl]-9-methyl-6-(oxan-4-yl)-5,6,7,8-tetrahydrocarbazole-3-carboxamide] gave a Ki in assay [1] of 182 nM. In assay [2], the EC50 was 318 nM and the Emax turned out to be 124%.

Turning to `CCS(=O)(=O)n1c2c(c3cc(C(=O)N4CCC(O)CC4)ccc31)CC(C1CCOCC1)CC2` (stereo not drawn) [[9-ethylsulfonyl-6-(oxan-4-yl)-5,6,7,8-tetrahydrocarbazol-3-yl]-(4-hydroxy-1-piperidyl)methanone], affinity in assay [1] was put at a Ki of 155 nM. In addition, in assay [2], the EC50 was 352 nM and the Emax turned out to be 107%.
